Columns and labels:
[1] = tested on: QTc interval; details: positive control; cited from earlier work
[2] = molecular target: IKs (Homo sapiens, UniProt P51787); details: cited from earlier work
[3] = value inserted in K1 equation as (100-97)/100; cited from earlier work
[4] = value inserted in K1 equation; read-out: Cmax of the drug at a test dose; cited from earlier work
[5] = molecular target: IKr (Homo sapiens, UniProt Q12809); details: cited from earlier work
[6] = in vivo; cited from earlier work
[7] = molecular target: CYP2D6 (Homo sapiens, UniProt P10635); details: in vivo; cited from earlier work
[8] = CYP2D6 inhibited; 100/(100-MP); over the course of multiple doses
[9] = molecular target: L-type Ca^2+ currents (Homo sapiens, UniProt Q13936); details: cited from earlier work
L-type Ca^2+ currents, sequence (Q13936 whole entry): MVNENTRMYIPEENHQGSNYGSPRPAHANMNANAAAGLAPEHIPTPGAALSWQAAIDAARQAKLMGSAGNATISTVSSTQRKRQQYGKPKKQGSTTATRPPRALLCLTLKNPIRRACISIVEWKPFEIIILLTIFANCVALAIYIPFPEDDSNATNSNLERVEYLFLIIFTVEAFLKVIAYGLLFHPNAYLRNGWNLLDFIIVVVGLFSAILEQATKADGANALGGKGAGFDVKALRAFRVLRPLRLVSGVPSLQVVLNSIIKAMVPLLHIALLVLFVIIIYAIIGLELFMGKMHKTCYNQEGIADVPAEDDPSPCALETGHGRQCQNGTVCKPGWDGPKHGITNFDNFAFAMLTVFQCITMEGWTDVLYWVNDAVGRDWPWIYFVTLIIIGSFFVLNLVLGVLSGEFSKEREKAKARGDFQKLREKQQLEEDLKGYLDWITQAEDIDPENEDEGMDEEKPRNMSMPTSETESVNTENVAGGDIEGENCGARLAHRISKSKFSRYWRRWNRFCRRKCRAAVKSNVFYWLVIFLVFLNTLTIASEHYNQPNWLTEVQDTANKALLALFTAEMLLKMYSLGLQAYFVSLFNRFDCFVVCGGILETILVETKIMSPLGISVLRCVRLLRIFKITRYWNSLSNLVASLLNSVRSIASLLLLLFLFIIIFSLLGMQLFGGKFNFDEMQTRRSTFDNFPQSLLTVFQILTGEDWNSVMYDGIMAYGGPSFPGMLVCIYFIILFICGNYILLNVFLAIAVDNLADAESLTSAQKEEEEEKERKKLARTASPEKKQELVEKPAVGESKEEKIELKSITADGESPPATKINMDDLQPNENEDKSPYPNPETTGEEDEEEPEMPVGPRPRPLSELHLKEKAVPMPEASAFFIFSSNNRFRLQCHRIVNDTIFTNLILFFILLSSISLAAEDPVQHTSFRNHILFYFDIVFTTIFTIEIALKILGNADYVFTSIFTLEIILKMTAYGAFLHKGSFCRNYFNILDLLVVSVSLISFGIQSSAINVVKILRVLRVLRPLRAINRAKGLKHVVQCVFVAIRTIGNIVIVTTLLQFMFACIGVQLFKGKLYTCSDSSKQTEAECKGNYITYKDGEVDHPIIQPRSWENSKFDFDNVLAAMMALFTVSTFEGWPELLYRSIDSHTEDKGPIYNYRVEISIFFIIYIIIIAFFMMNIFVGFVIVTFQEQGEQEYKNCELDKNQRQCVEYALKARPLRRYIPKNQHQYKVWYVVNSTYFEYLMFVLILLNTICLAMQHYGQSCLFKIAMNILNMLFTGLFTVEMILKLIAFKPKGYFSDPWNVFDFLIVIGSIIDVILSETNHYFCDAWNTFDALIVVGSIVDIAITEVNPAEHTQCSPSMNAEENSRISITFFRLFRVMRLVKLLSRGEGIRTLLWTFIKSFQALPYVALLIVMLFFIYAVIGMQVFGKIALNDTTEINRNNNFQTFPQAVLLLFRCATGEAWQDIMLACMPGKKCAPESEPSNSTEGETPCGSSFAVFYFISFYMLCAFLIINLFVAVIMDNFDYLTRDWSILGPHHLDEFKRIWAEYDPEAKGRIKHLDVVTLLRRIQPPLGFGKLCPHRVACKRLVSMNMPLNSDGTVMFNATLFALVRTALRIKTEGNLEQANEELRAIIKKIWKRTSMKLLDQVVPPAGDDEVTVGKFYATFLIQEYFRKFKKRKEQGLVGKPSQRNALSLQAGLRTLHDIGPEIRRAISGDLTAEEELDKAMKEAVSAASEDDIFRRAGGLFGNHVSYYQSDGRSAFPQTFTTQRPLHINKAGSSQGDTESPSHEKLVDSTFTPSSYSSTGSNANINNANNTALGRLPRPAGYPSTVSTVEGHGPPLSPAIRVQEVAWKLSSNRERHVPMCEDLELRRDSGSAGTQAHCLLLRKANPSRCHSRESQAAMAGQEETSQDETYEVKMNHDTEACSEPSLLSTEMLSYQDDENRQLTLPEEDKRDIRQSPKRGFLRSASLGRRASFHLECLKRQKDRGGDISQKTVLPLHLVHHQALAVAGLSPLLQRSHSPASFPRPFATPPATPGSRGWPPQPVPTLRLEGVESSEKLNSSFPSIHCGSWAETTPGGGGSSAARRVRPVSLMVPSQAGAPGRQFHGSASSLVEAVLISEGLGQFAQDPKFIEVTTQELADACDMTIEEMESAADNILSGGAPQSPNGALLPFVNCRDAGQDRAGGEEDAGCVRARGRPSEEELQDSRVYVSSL
L-type Ca^2+ currents, sequence (Q08289 whole entry partner): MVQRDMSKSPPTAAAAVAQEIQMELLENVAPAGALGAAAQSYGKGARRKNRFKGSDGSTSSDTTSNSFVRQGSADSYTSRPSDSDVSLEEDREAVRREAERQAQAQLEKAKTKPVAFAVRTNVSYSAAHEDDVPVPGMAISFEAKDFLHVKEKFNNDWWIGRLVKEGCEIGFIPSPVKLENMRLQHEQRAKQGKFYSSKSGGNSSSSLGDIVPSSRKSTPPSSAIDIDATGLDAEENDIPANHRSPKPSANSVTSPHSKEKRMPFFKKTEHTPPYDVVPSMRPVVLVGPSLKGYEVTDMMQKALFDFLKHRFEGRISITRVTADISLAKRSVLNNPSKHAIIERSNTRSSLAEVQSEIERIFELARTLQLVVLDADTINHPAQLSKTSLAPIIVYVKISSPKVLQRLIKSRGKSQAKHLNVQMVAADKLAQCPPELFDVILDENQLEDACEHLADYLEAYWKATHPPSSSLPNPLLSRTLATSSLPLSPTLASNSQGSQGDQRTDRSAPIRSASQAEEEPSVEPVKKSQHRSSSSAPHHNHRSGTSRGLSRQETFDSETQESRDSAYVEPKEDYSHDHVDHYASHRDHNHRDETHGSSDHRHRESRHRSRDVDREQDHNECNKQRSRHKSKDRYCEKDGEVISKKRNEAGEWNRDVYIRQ
L-type Ca^2+ currents, sequence (P54289 25-956 partner limits assumed): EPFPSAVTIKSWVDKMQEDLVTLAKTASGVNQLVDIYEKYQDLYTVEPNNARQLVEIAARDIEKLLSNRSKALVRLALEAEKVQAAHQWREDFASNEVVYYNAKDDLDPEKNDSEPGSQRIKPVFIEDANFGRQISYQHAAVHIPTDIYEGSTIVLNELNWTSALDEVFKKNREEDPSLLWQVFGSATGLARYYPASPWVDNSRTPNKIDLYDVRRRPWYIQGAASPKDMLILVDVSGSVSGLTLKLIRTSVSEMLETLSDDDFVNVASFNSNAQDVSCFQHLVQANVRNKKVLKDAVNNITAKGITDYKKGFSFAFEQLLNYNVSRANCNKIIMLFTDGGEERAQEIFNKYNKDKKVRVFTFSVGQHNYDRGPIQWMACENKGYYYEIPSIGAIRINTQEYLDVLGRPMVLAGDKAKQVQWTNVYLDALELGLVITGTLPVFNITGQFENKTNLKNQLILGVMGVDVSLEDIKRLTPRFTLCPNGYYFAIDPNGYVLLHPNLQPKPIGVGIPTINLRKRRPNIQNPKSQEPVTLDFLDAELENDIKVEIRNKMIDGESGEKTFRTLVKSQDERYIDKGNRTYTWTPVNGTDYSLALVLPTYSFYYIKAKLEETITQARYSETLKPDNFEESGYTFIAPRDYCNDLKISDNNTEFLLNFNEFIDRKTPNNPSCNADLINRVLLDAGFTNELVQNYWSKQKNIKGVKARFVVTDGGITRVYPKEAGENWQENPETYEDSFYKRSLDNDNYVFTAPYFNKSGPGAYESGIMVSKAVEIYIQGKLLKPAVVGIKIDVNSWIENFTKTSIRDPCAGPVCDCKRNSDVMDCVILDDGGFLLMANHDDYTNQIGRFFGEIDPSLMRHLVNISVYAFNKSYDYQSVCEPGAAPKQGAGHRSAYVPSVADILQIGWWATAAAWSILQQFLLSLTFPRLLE
L-type Ca^2+ currents, sequence (P54289 957-1103 partner limits assumed): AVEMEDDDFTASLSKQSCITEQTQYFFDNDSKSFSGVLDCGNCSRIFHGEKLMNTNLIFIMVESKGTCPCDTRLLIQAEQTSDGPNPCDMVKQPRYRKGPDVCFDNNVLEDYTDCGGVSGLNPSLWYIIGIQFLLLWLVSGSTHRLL

IKr, sequence (Q12809 whole entry): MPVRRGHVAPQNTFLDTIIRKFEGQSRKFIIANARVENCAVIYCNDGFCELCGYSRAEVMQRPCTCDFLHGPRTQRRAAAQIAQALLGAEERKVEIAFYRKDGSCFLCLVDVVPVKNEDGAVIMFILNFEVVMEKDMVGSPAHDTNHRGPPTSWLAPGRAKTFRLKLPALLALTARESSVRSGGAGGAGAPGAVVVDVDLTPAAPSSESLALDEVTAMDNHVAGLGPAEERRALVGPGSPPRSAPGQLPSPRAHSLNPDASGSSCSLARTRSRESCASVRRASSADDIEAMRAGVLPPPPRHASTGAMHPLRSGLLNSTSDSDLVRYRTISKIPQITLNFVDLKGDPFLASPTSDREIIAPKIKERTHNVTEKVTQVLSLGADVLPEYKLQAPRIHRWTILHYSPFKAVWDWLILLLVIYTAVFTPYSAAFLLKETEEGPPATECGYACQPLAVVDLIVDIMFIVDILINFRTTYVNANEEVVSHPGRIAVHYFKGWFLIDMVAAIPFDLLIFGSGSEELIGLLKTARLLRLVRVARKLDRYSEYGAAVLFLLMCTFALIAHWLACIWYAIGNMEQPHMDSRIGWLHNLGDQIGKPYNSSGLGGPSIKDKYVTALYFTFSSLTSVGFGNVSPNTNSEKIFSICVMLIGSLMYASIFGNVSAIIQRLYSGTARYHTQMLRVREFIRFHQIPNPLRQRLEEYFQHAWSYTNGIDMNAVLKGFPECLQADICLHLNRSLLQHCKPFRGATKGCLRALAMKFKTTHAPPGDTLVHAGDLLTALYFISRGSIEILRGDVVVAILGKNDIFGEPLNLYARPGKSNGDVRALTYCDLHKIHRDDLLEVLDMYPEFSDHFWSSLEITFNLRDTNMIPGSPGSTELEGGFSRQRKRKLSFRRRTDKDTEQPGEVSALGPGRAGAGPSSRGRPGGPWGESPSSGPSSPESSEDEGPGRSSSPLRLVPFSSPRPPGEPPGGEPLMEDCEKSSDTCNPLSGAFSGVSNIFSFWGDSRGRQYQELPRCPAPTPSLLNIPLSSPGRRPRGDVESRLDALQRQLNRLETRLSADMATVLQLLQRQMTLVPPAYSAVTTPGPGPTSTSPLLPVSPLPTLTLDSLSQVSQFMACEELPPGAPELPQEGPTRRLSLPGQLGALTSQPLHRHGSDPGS

SMILES: COc1c(N2C[C@@H]3CCCN[C@@H]3C2)c(F)cc2c(=O)c(C(=O)O)cn(C3CC3)c12 [moxifloxacin]
- QT prolongation added to the QTc interval [1]: 7-10 milliseconds

SMILES: CC1Cc2ccccc2N1NC(=O)c1ccc(Cl)c(S(N)(=O)=O)c1 (centres unmarked) [Indapamide]
- block of IKs [2]: inhibit IKs

SMILES: CC(C)(C)c1ccc(C(O)CCCN2CCC(C(O)(c3ccccc3)c3ccccc3)CC2)cc1 (centres unmarked) [terfenadine]
- Protein binding of the drug [3]: 97%
- Cmax [4]: 3.18 nM

SMILES: Nc1nc(N)c2nc(-c3ccccc3)c(N)nc2n1 [triamterene]
- block of IKs [2]: significant block
- block of IKr [5]: significant block

SMILES: Cc1cccc(C)c1OCC(C)N (centres unmarked) [mexiletine]
- F (bioavailability) [6]: 95%
- cleared by CYP2D6 [7]: 75%
- increase in concentration [8]: ~4 fold

SMILES: CCCCc1oc2ccccc2c1C(=O)c1cc(I)c(OCCN(CC)CC)c(I)c1 [Amiodarone]
- block of L-type Ca2+ currents [9]: blocks L-type Ca^2+ currents

SMILES: COc1ccccc1OCC(O)CN1CCN(CC(=O)Nc2c(C)cccc2C)CC1 (centres unmarked) [Ranolazine]
- block of IKr [5]: blocks IKr
